The values that follow come from patent publication US20040235866A1, “Lymphocytic activation inhibitor and remedial agent for autoimmune disease” (priority 2001, published 2004).

Where two headings read alike, the source gives them in different places.

For series [1], the system named is spleen lymphocytes cultured with PLP139-151. Kind of series: Inhibition effect for lymphocyte activation (antigen-specific division, 3H-thymidine uptake). It is filed as cell-based. The note with it: female SJL/J mouse spleen lymphocytes, PLP139-151 stimulation, 5 days culture, read-out: IC 50 (inhibition of antigen-specific division of the lymphocytes). From the text:
Immunizing a mounse with a partial peptide of a proteolipid protein (PLP), a central myelin protein, induces a chronic encephalomyelitis therein. Sampling lymphocytes from the spleen of the mouse and stimulating by an antigen in vitro allow the induction of antigen-specific activation and division of the lymphocyte. The effect of a drug to the reaction was examined to evaluate the inhibition effect of the drug for lymphocyte activation. Specifically, a female SJL/J mouse was immunized with an adjuvant containing a PLP partial peptide (PLP139-151) under ether anesthesia. On the day of immunization and 2 days thereafter, deactivated Bordetella pertussis (one billion/mouse) was intravenously administered. On 7th or 8th day after the immunization, the mouse was killed by ether anesthesia and then the spleen thereof was extracted to isolate spleen lymphocytes. […] The compound numbers are the same as those described in the previous list (hereinafter, the same).

Series [2] has as its system experimental encephalomyelitis model (PLP peptide p139-151 immunized mouse). Kind of series: Effect in an experimental encephalomyelitis model. It is filed as in vivo. The following applies: female SJL/J mouse, 200 mg/kg orally from 5th day to 12th day after initial sensitization, FIG. 2. The procedure: 100 μl of a Freund's complete adjuvant (Difco, containing 0.6 mg/ml of M. tuberculosis H37Ra) containing the PLP peptide (p139-151, Toray Research Center) was subcutaneously injected to a female SJL/J mouse in the back thereof under ether anesthesia for immunization (initial sensitization). Two days after, deactivated Bordetella pertussis was intravenously injected in an amount of about one billion per mouse. Seven days after, immunization was conducted again with the antigen. Over several weeks thereafter, abnormalities in limbs, a tail, and righting reflexes were graded into scored levels and recorded. The subjective compound was orally administered in an amount of 200 mg/kg from 5th day to 12th day after the initial sensitization. In experiments, 12 mice were used for each of a control group and a drug-administered group.
Note that, the experimental encephalomyelitis model described above is a model in which a lymphocyte activated by reacting with an immunized PLP peptide causes an immunoreaction to induce encephalomyelitis, and is widely recognized as a model for evaluating a pharmacological effect of a compound having a lymphocyte activation inhibition effect (e.g., Agents and Actions, 27, 351-355 (1989); and Agents and Actions, 35, 79-84 (1992)).

For another series, the system named is mice. Kind of series: Successive 15-day administration to mice (toxicity observation). The note with it: 100 mg/kg and 200 mg/kg successively for 15 days. The class given is in vivo. The source says:
It is thus considered that the compound represented by the general formula (I) has low toxicity.

Series [3] relates to mouse collagen-induced arthritis. The series is described as follows: Effect on mouse collagen-induced arthritis. It is filed as in vivo. The note with it: DBA/1JN male mouse, FIG. 1. On the procedure: A DBA/1JN male mouse (7 weeks of age) was sensitized by intracutaneously injecting in the tail part thereof with 0.1 ml of an emulsion solution obtained by mixing a 0.3% bovine-derived type II collagen solution with the same amount of a Freund's complete adjuvant. After 3 weeks after initial sensitization, a booster was conducted in a similar way to cause arthritis. The subjective compound was made into a solution (5 mg/ml) according to a general method, and the day of the booster and 3 days thereafter, the solution was intravenously administered in an amount of 10 ml/kg (50 mg/kg). In experiments, 8 mice were used for each of a control group and a drug-administered group. The condition of arthritis was evaluated macroscopically on limbs and graded into 5 score levels (0; normal, 1; flare on a finger joint, 2; slight edema on an entire leg, 3; edema on an entire leg, and 4; severe edema on an entire leg), to be shown as a total sum. […] The effect lasted even after the second administration and the inhibition effect was recognized even 36 days after the initial sensitization, i.e., 12 days after administration (FIG. 1). […]

For the compound `NS(=O)(=O)CCc1ccc(S(=O)(=O)Nc2cccc3c(Cl)c[nH]c23)cc1` [Compound 35, N-(3-Chloro-1H-indol-7-yl)-4-(2-sulfamoylethyl)-benzenesulfonamide], the IC50 in series [1] (Mus musculus, Lymphocyte) is 0.67 µM.
Same read-out and setting: then `NC(=O)c1ccc(S(=O)(=O)Nc2cccc3c(Cl)c[nH]c23)cc1` [Compound 29, 4-Carbamoyl-N-(3-chloro-1H-indol-7-yl)benzenesulfonamide], with 2.02 µM; and `CS(=O)(=O)NCc1ccc(S(=O)(=O)Nc2cccc3c(Cl)c[nH]c23)cc1` [Compound 53, N-(3-Chloro-1H-indol-7-yl)-4-[(methanesulfonamido)methyl]-benzenesulfonamide], with 0.74 µM.
Consider `NS(=O)(=O)Cc1ccc(S(=O)(=O)Nc2ccc(Cl)c3c(Cl)c[nH]c23)cc1` [Compound 77, N-(3,4-Dichloro-1H-indol-7-yl)-4-(sulfamoylmethyl)-benzenesulfonamide], for which, in series [1] (Mus musculus, Lymphocyte), the IC50 came to 0.98 µM.
On the same count and under the same terms, then `CNC(=O)c1ccc(S(=O)(=O)Nc2cccc3c(Cl)c[nH]c23)cc1` [Compound 72, N-(3-Chloro-1H-indol-7-yl)-4-(N-methylcarbamoyl)-benzenesulfonamide], with 1.81 µM.
Consider `N#Cc1c[nH]c2c(NS(=O)(=O)c3cccc(Cl)c3)cccc12` [Compound 17, 3-Chloro-N-(3-cyano-1H-indol-7-yl)benzenesulfonamide], for which the IC50 in series [1] (Mus musculus, Lymphocyte) came to 0.44 µM. Besides, in series [2], the “Onset of abnormality (limbs, tail, righting reflexes score)” value was “delayed expression of abnormality” and the “Severity of abnormality (limbs, tail, righting reflexes score)” value is “alleviated the severity”. Also, in the series on mice, the Body weight entry is “dose-dependent weight increases” and the Toxicity observation result is “no observation showing toxicity”.
As to `Cc1ccc(NS(=O)(=O)c2cccc(C#N)c2)c2[nH]cc(C#N)c12` [Compound 94, 3-Cyano-N-(3-cyano-4-methyl-1H-indol-7-yl)-benzenesulfonamide], the IC50 in series [1] (Mus musculus, Lymphocyte) was determined as 0.25 µM. In the series with mice, the Body weight entry is “dose-dependent weight increases” and the Toxicity observation result is recorded as “no observation showing toxicity”.
On to `N#Cc1c[nH]c2c(NS(=O)(=O)c3ccc(N)nc3)cccc12` [Compound 37, 6-Amino-N-(3-cyano-1H-indol-7-yl)-3-pyridinesulfonamide], for which the IC50 in series [1] (Mus musculus, Lymphocyte) was 0.64 µM.
With `CCS(=O)(=O)Nc1ccc(S(=O)(=O)Nc2cccc3c(Cl)c[nH]c23)cc1` [Compound 70, N-(3-Chloro-1H-indol-7-yl)-4-(ethanesulfonamido)-benzenesulfonamide], the IC50 in series [1] (Mus musculus, Lymphocyte) came to 1.4 µM.
Same read-out and setting: then `CC(=O)N(C)c1ccc(S(=O)(=O)Nc2cccc3c(Cl)c[nH]c23)cc1` [Compound 79, N-(3-Chloro-1H-indol-7-yl)-4-(N-methylacetamido)-benzenesulfonamide], with 0.36 µM.
Take `NS(=O)(=O)c1ccc(S(=O)(=O)Nc2cccc3c(Cl)c[nH]c23)cc1` [Compound 19, N-(3-Chloro-1H-indol-7-yl)-4-sulfamoylbenzenesulfonamide]: the “Effect on crisis and development of arthritis (arthritis score, total sum)” value in series [3] (50 mg/kg intravenously on the day of the booster and 3 days thereafter) was “obvious inhibition effect for the crisis and development of arthritis”. Besides, the “Duration of the inhibition effect on arthritis, days after the initial sensitization” value in series [3] (50 mg/kg intravenously, i.e. 12 days after administration) is on record as no less than 36 days. The IC50 in series [1] (Mus musculus, Lymphocyte) amounted to 1.83 µM.
`CS(=O)(=O)CCc1ccc(S(=O)(=O)Nc2cccc3c(Cl)c[nH]c23)cc1` [Compound 36, N-(3-Chloro-1H-indol-7-yl)-4-[2-(methylsulfonyl)ethyl]-benzenesulfonamide]: the IC50 in series [1] (Mus musculus, Lymphocyte) turned out to be 0.78 µM.
Turning to `N#Cc1cccc(S(=O)(=O)Nc2cccc3c(C#N)c[nH]c23)c1` [Compound 51, 3-Cyano-N-(3-cyano-1H-indol-7-yl)benzenesulfonamide], the IC50 in series [1] (Mus musculus, Lymphocyte) worked out at 0.62 µM. Also, in the series on mice, the Body weight result is “dose-dependent weight increases” and the Toxicity observation result was “no observation showing toxicity”.
As to `N#Cc1ccc(S(=O)(=O)Nc2cccc3c(Cl)c[nH]c23)cc1` [Compound 28, 4-Cyano-N-(3-chloro-1H-indol-7-yl)benzenesulfonamide], in series [1], the IC50 stood at 2.86 µM.
For `CCNS(=O)(=O)c1ccc(S(=O)(=O)Nc2cccc3c(Cl)c[nH]c23)cc1` [Compound 69, N-(3-Chloro-1H-indol-7-yl)-4-(N-ethylsulfamoyl)-benzenesulfonamide], in series [1] (Mus musculus, Lymphocyte), the IC50 was determined as 0.59 µM.
Still for that read-out and setting: then `Nc1ccncc1S(=O)(=O)Nc1cccc2c(Cl)c[nH]c12` [Compound 33, 4-Amino-N-(3-chloro-1H-indol-7-yl)-3-pyridinesulfonamide], with 0.47 µM; and `CS(=O)(=O)Nc1ccc(S(=O)(=O)Nc2cccc3c(Cl)c[nH]c23)cc1` [Compound 4, N-(3-Chloro-1H-indol-7-yl)-4-(methanesulfonamido)-benzenesulfonamide], with 1.43 µM; and `CS(=O)(=O)NCCc1ccc(S(=O)(=O)Nc2cccc3c(Cl)c[nH]c23)cc1` [Compound 62, N-(3-Chloro-1H-indol-7-yl)-4-[2-(methanesulfonamido)ethyl]-benzensulfonamide], with 0.58 µM.
Regarding `Nc1ccc(S(=O)(=O)Nc2cccc3c(Cl)c[nH]c23)cc1` [Compound 3, 4-Amino-N-(3-chloro-1H-indol-7-yl)benzenesulfonamide], in series [1] (Mus musculus, Lymphocyte), the IC50 was 2.27 µM.
Regarding `N#Cc1ccc(S(=O)(=O)Nc2cccc3c(Cl)c[nH]c23)cc1` [Compound 10, N-(3-Chloro-1H-indol-7-yl)-4-cyanobenzenesulfonamide], in series [1], the IC50 came to 0.59 µM. Besides, in series [2], the “Onset of abnormality (limbs, tail, righting reflexes score)” value is on record as “delayed expression of abnormality” and the “Severity of abnormality (limbs, tail, righting reflexes score)” value is given as “alleviated the severity”. For the same compound, in the series with mice, the Body weight entry is listed as “dose-dependent weight increases” and the Toxicity observation entry is reported as “no observation showing toxicity”.
